# Measured values reported in a melting point compilation (Tetko et al.; mined from patent text by program, amines drawn as free bases though some values may be those of a salt).
row,Compound,melting point [°C]
1,CC(C)(C)OC(=O)N[C@H](Cc1c[nH]c2ccccc12)C(N)=O,142 to 143
2,Cc1c(C(=O)c2cccc(Cl)c2Cl)c2cccc(Br)c2n1CCCCl,139
3,COC(=O)[C@H](Cc1ccc(NC(=S)NCCCc2ccccc2)cc1)NC(=O)[C@@H]1CCCN1S(=O)(=O)c1ccc(C)cc1,74 to 80
4,COC(=O)C(O)C(NC(=O)OCc1ccccc1)c1ccccc1 (stereo unspecified),120 to 121
5,N#Cc1cc2c(cc1Br)nc1n2CCC1,224
6,COC(=O)NCc1ccc(Br)cc1F,66 to 67.5
7,CC(=O)NC[C@@H]1C[C@H]1c1c(F)ccc2nn(C)cc12 (relative stereo),120
8,COC(=O)c1ccc(-c2ccc(OC)c(C(C)(C)C)c2)s1,94 to 95
9,COc1ccc(CC(SC(C)=O)C(N)=O)cc1C(=O)NCc1ccc(C(F)(F)F)cc1 (stereo unspecified),159 to 161
10,NS(=O)(=O)c1ccc(C(=O)NCc2ccccc2)s1,203
11,O=C(Nc1ccccc1)OC1CCN(C(=O)c2ccc(F)cc2)C1 (stereo unspecified),173 to 175
12,CCc1c(C)c(NC(=O)CC(C)(C)C)c(C)c2c1S(=O)CC2c1ccc(C(C)C)cc1 (stereo unspecified),195 to 196
13,O=C(O)CN1Cc2ccccc2CC(NC(=O)OCC2c3ccccc3-c3ccccc32)C1=O (stereo unspecified),117 to 120
14,Cc1ccc(C(=O)CCl)cc1S(N)(=O)=O,166
15,CCC(O)(CO)c1ccc(OCc2ccc3ccccc3c2)c(OC)c1 (stereo unspecified),120
16,COc1ccc(C=CC(=O)NNC(=O)C=Cc2ccccc2)cc1,263
17,CC(=O)Nc1ccc(C(=O)C=CC(=O)O)cc1,206 to 207
18,O=C(Nc1ccc(NCc2ccccc2)cc1)C(=O)N1CCC(Cc2ccccc2)CC1,126 to 128
19,COc1ccc(C(=O)Nc2ccc(C(C)=O)cc2)cc1C12CC3CC(CC(C3)C1)C2,200 to 201
20,CC(=O)N1Cc2cccc3[nH]cc(c23)C1,205 to 206
21,COc1ccc2ccc(N3C(=O)c4ccccc4C3OC(=O)N3CCN(C)CC3)nc2n1 (stereo unspecified),218
22,CCCCc1ncc(CCN(C)C(Cc2ccccc2)C(=O)O)n1Cc1ccccc1Cl (stereo unspecified),59 to 61
23,Cc1cc(C)cc(P(=O)(O)O)c1,197 to 199

row,Compound,melting point [°C]
1,CC(COc1ccc(-n2cncn2)cc1)(NS(=O)(=O)Cc1ccccc1)C(=O)O (stereo unspecified),148 to 151
2,Cc1ccc([N+](=O)[O-])cc1N(C)c1nnn[nH]1,201 to 205
3,CCCCCCCCCC(C)(C)c1cc(C(=O)O)ccc1OC,112
4,CCc1nn(Cc2nccn2C)c2c(=O)[nH]c(-c3cc(S(C)(=O)=O)ccc3OCC(C)C)nc12,253 to 254
5,CN(C)C(=O)COc1cc(Cl)ccc1C(=O)NCCN1CCN(CCc2ccccc2)CC1,159 to 160
6,CCCCc1c[nH]c2cccc(SC)c2c1=O,144
7,CCCCCCCCCCCC(=O)N[C@H](CC(=O)c1ccc2ccccc2c1)C(=O)OCC,75 to 76
8,COc1ccc(N(C)C(=O)CN(C(=O)CNC(=O)Nc2cccc(C)c2)c2ccccc2)cc1,202
9,CCOC(=O)CCCCCC=C(NCCC(O)C1CCCCC1)C(=O)OCC (stereo unspecified),97 to 99
10,COc1ccc(C2=NN(Cc3ccc(C(=O)NC4CCCC4)cc3)C(=O)CC2)cc1OC,147
11,Cn1ncc(-c2ccc(OCCCCl)cc2)cc1=O,90 to 91
12,N#Cc1nn(-c2c(Cl)cc(C(F)(F)F)cc2Cl)c(N)c1-c1ccsc1,210 to 212
13,CC(C)(C)OC(=O)NNCc1cccc(C#N)c1,75 to 80
14,Cc1[nH]c(C=O)c(C)c1CCO,125 to 127
15,Cc1ccc(Cc2cnc(NCCCNc3cccc(C)n3)[nH]c2=O)cn1,113 to 120
16,CCOCCCOc1ccc(-c2ccc3c(c2)C=C(C(=O)Nc2ccc(CN(C)C4CCOCC4)cc2)CCS3(=O)=O)cc1Cl,182 to 183
17,COC12CC(c3nnc(-c4cncc(Br)c4)o3)CN(C)C1Cc1cn(C)c3cccc2c13 (stereo unspecified),183 to 186
18,CCn1cc(C(=O)O)c(=O)c2cc(F)c(N3CCOC(CNC=O)C3)c(F)c21 (stereo unspecified),234 to 236
19,CN(C)c1ccc(NC2=CC(=O)C(N)=CC2=O)cc1,300
20,CC(=O)C1CCC2C3CCC4CC5OC5CC4(C)C3C(OC(=O)CCl)CC12C (stereo unspecified),163 to 169
21,CC(C)(CCCOc1ccc(CCC(=O)c2ccc(-c3ccc(C(F)(F)F)cc3)s2)c(Cl)c1Cl)C(=O)O,167 to 169
22,O=C(O)c1cccc(Br)c1Nc1ccccc1Br,181 to 182
23,Cc1ccc(S(=O)(=O)O[C@H](C)C(=O)N2C(=O)N(C)C[C@H]2C(=O)OC(C)(C)C)cc1,78 to 80

row,Compound,melting point [°C]
1,CCNC(=O)NSC(=S)N(C)C,173 to 175
2,CC1COCC(C)N1c1cccc([N+](=O)[O-])c1 (stereo unspecified),127 to 128
3,C#CCOc1cc(-c2ncnc(C(F)F)c2Cl)c(F)cc1Cl,93 to 95
4,O=C(NC1CNC1=O)OCc1ccccc1 (stereo unspecified),160 to 161
5,COC(=O)c1cscc1NC(=O)COc1ccc(-c2ccc(F)cc2)cc1,127 to 130
6,Cc1ccc(CCCc2c(C(C)C)nc(C(C)C)c(CO)c2-c2ccc(F)cc2)cc1,79 to 80
7,COC(=O)Nc1nn2cccc2c(=O)[nH]1,232
8,CC(C)Oc1ccc(COc2ccc(CC(=O)O)cc2Cl)cc1,115 to 116
9,CCCn1cc(Cc2ccc(C(=O)NS(=O)(=O)c3ccccc3Cl)cc2OC)c2cc(CCC(C)C(=O)N(C)C)ccc21 (stereo unspecified),95 to 98
10,C#CC1(O)CCC2C3CCC4=CC(=O)CCC4C3C(=CF)CC21CC (stereo unspecified),169 to 180
11,O=C(O)CCS(=O)(=O)NCCOCCc1ccccc1,80 to 82
12,CC(=O)OC1CCC2(C)C(CCC3C4CC(C)C(O)(C(C)=O)C4(C)CCC32F)C1 (stereo unspecified),150
13,CC1(C)CC(Nc2nc(NC3CC(C)(C)N(O)C(C)(C)C3)nc(N(C3CC(C)(C)N(O)C(C)(C)C3)C3CC(C)(C)N(O)C(C)(C)C3)n2)CC(C)(C)N1O,243 to 246
14,O=S(=O)(Nc1ccc2[nH]c3c(c2c1)CCNC3)c1c(Cl)nc2sccn12,242 to 244
15,CCC12CCC(=O)CC1CCc1cc(O)ccc12 (stereo unspecified),168 to 170
16,COC(=O)CCCc1cc2nc(Cl)ccc2n1S(=O)(=O)c1ccc(I)cc1,117 to 118
17,CCNc1cccc(-c2ccnc3c(C(=O)c4ccco4)cnn23)c1,142 to 143
18,O=C1C(=O)N2CCOc3cc([N+](=O)[O-])cc1c32,230 to 232
19,COc1ccc(-c2nc(-c3cccn3C)[nH]c2-c2ccc(OC)cc2)cc1,110
20,CN1CCN(C(=O)OC2c3ccccc3C(=O)N2c2ccc3c(Cl)ccnc3n2)CC1 (stereo unspecified),240
21,[O-][N+]#Cc1c(Cl)ccc2cc(Cl)cnc12,185
22,CC(=O)N1c2ccc(F)cc2CC1C(N)=O (stereo unspecified),232 to 235
23,CCCCCNC(=N)NC(N)=S,98 to 100

# The next lines start with the values.
row,melting point [°C],Compound
1,203 to 205,Cc1nnc(-c2cc3c(OC[C@@H](O)CN4CCC(c5cccc6ccccc56)CC4)cccc3[nH]2)o1
2,106 to 107,CCc1cccc(C)c1CNc1nc(OC)cc2c1nc(C)n2C
3,140 to 147,COc1ccc(N2Cc3cnc(Nc4ccccc4)nc3N([C@@H](C)CO)C2=O)cc1
4,70 to 72,Cc1ccn(-c2cncc(F)c2)n1
5,144 to 146,CC(C)(Sc1nc2ccccc2cc1-c1ccccc1)C(=O)O
6,100 to 102,Nc1ccsc1C(=O)c1ccccc1
7,166 to 168,Cc1noc(C)c1C(=O)Nc1ccc(-n2nc(C3CC3)cc2C2CC2)c(F)c1
8,167 to 169,O=C1Cc2ccccc2C(c2ccccc2F)N1 (stereo unspecified)
9,242 to 243,O=c1ccsc2c1[nH]c1ccccc12
10,132 to 134,CC(C)(C)c1cc(-n2nc3ccc(Sc4ccccc4)cc3n2)c(O)c(C(C)(C)C)c1
11,138 to 141,CC1=NN=C(C=Cc2ccccc2F)c2cc3c(cc2C1)OCO3
12,149 to 150,COC(=O)C1C(=O)N(Cc2ccc(Br)cc2F)C(=O)c2ccccc21 (stereo unspecified)
13,200 to 201,O=C(Nc1cccnc1)N1CCN(c2nccc(-c3ccccc3F)n2)CC1
14,141 to 143,CC1(C)CC(=O)c2c(-c3ccccc3)sc(-c3nccs3)c2C1
15,143 to 147,COc1ccc2ccc(-n3nc(OCCN4CCOCC4)cc3C)cc2c1
16,149 to 150,COc1cc(COc2nn(-c3ccccc3)cc2Cn2cncn2)ccc1OCc1nc(-c2ccco2)oc1C

row,melting point [°C],Compound
1,85 to 86,Cc1cccc(Nc2ccccc2C(=O)OCC(=O)N(C)C)c1C
2,249,Cc1ccc(-c2nc(N)ncc2-c2ccc(=O)[nH]n2)cc1
3,198 to 200,O=C(CNc1c(C(=O)O)[nH]c2cc(Cl)ccc12)c1ccccc1O
4,161 to 162,COc1ccccc1N1CCN(CCCNC(=O)c2csc3c(=O)cc(-c4ccccc4)oc23)CC1
5,231 to 232,O=c1nc(-c2ccccn2)sc2cc(Br)ccc12
6,249 to 251,N=C(NO)c1ccccc1-n1cnc2cnc3ccc(-c4ccccc4)cc3c21
7,96.7,O=C(c1ccccc1)c1ccc(Cl)c(N=C=S)c1
8,262 to 265,O=C(O)C1Cc2c(ccc3c(=O)c4c(F)cccc4oc23)O1 (stereo unspecified)
9,88 to 89,Cc1cc(C)n(Cc2ccc(Cl)cc2Cl)c1C=O
10,175 to 179,Cc1cc(-c2c(-c3ccccc3)nc3ccc(N4CCC5(CCCNC5)CC4)nn23)ccn1
11,199 to 202,Cc1nnc2ccc(-c3cccnc3)cn12
12,88 to 90,CC1CC(=O)c2cc(Cl)c(F)cc2O1 (stereo unspecified)
13,123 to 125,COc1cc(OC)nc(Oc2ccc3ccccc3c2C=O)n1
14,198 to 202,CC1=NN=C(C=Cc2ccc(C#N)cc2)c2cc3c(cc2C1)OCO3
15,202 to 205,Cc1nc(-n2ccc(OCc3ccccn3)cc2=O)sc1C(=O)NCc1ccccc1
16,77 to 79,C=CC1(CC)OC(=O)c2ccc(Oc3ccc(C(F)(F)F)cc3Cl)cc21 (stereo unspecified)
